Data on 87 compounds can be found in PubChem BioAssay AID812 (SRMLSC, 2007).

The assay relates to Saccharomyces cerevisiae lifespan extension, no nicotinamide. Put plainly: yeast lifespan extension without nicotinamide, confirmation, yeast lifespan extension project, S. cerevisiae (AID 812).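 Further: growth read as optical density after 42 hours of incubation at 30C.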

pEC50: −log10 of the molar value. The source made the active and inactive calls. How the calls were made is not given here.

Broadly, the EC50 is the concentration needed to bring the measured effect to its halfway point. For orientation: pEC50 means −log10 of the EC50, conventionally taken in molar units.

As to `CCOC(=O)c1c(C)oc2c1c(C(c1cccnc1)N1CCCCC1)c(O)c1ccccc12` (configuration not stated), the EC50 is > 40 µM (inactive).
Still for that read-out and setting: with `COc1ccc(OC)c(NC(=S)N2CCN(C/C=C/c3ccccc3)CC2)c1` the figure was > 40 µM (inactive).
Same read-out and setting: under `Nc1sc(-c2ccccc2)cc1C(=O)O` stands > 40 µM (inactive); under `Oc1ccc(Br)cc1C=Nc1ccc2[nH]ncc2c1`, > 40 µM (inactive); under `COc1cc(/C=c2\sc3nc(-c4ccncc4)nn3c2=O)ccc1OC(C)=O`, > 40 µM (inactive).
The same measure, in the same setting: under `CCC(=O)Nc1ccccc1Sc1ncnc2scc(-c3ccccc3)c12` stands > 40 µM (inactive).
For `COc1ccc(-c2cc(N)n(S(=O)(=O)c3c(F)c(F)c(F)c(F)c3F)n2)cc1OC`, the pEC50 is 4.58.
On to `Cc1ccc(NC(=O)C2C(=O)N(C)c3ccccc32)cc1` (configuration not stated), for which the EC50 is > 40 µM (inactive).
Still for that read-out and setting: with `O=C(NCC1CCCO1)c1c(O)c2ccccc2[nH]c1=O` (configuration not stated) the figure was > 40 µM (inactive).
With `O=C1C(C2=C(O)c3ccccc3C2=O)=Nc2ccccc21`, the EC50 was > 40 µM (inactive).
Same read-out and setting: with `COC(=O)CC1=NN(c2ccccc2)C(=O)/C1=C\c1ccc(OC)cc1` the figure was > 40 µM (inactive); with `O=C1/C(=N/n2cnnc2)c2ccccc2N1Cc1ccccc1`, > 40 µM (inactive).
On the same count and under the same terms, with `Cc1ccc(S(=O)(=O)N[C@@H](Cc2ccccc2)C(=O)CCl)cc1` the figure was > 40 µM (inactive); with `COCCOC(=O)/C(=C/c1ccc(OC(=O)c2ccccc2)cc1)C(C)=O`, > 40 µM (inactive).
Same read-out and setting: with `CCCCn1c(NS(=O)(=O)c2ccc(C)cc2)c(C(=O)OCC)c2nc3ccccc3nc21` the figure was > 40 µM (inactive); with `Cc1nn(-c2c(Cl)cc(Cl)cc2Cl)c(=O)c2ccccc12`, > 40 µM (inactive); with `CN1C/C(=C/c2cccnc2)C(=O)/C(=C/c2cccnc2)C1`, > 40 µM (inactive).
Regarding `CCOc1ccc(NCc2nc3ccccc3n2CCOc2ccccc2)cc1`, the EC50 is > 40 µM (inactive).
The same measure, in the same setting: under `O=C1C(=C(O)c2ccccc2)C(=O)c2ccccc21` stands > 40 µM (inactive).
Still for that read-out and setting: with `Cc1cc2c(c(=O)n1CCc1ccccc1)C(c1ccco1)C(C#N)=C(N)O2` (configuration not stated) the figure was > 40 µM (inactive).
On the same count and under the same terms, under `O=C(COc1ccc([N+](=O)[O-])cc1)N(Cc1ccccc1)Cc1ccccc1` stands > 40 µM (inactive).
Regarding `CN1C(=O)C(Cl)(Cl)C(=O)c2ccccc21`, the EC50 was > 40 µM (inactive).
Same read-out and setting: under `Cc1[nH]n(-c2ccccc2)c(=O)c1N=Nc1nccs1` stands > 40 µM (inactive).
On the same count and under the same terms, with `CCc1ccc2nc(N3C(=O)C(O)=C(C(=O)c4ccco4)C3c3cccs3)sc2c1` (configuration not stated) the figure was > 40 µM (inactive); with `CCCCCCC1C(C#N)=C(N)OC2=C1C(=O)CC(C)(C)C2` (configuration not stated), > 40 µM (inactive).
On the same count and under the same terms, under `CN1CCC2(CC1)C(C#N)=C(N)NC(S)=C2C#N` stands > 40 µM (inactive); under `O=[N+]([O-])c1cc2oc3c(c2c(C=NCc2ccccc2)c1O)CCCC3`, > 40 µM (inactive).
With `C[C@]12CC[C@@H](O)C[C@@H]1CC[C@@H]1[C@@H]2CC[C@]2(C)[C@@H](O)CC[C@@H]12`, the EC50 was > 40 µM (inactive).
`CCCC(=Nc1ccc(N)cc1)C1=C(O)C(C(=O)OC)C(C)(C)CC1=O` (configuration not stated): the EC50 is > 40 µM (inactive).
The same measure, in the same setting: with `CCC1C/C(=C\c2cccnc2)C(=O)/C(=C/c2cccnc2)C1` (configuration not stated) the figure was > 40 µM (inactive).
Still for that read-out and setting: with `CC1=C(C#N)C2C(/C1=N/O)C2(C)C` (configuration not stated) the figure was > 40 µM (inactive).
Still for that read-out and setting: under `Cn1c(=O)c2c(nc(Br)n2Cc2ccc3ccccc3c2)n(C)c1=O` stands > 40 µM (inactive); under `CC(=NCCc1c(C)[nH]c2ccc(C)cc12)C1=C(O)CC(c2ccccc2)CC1=O` (configuration not stated), > 40 µM (inactive).
On to `COCCCNc1c2c3c(cccc3[nH]c1=O)C(=O)c1ccccc1-2`, for which the EC50 is > 40 µM (inactive).
The same measure, in the same setting: with `COc1ccc(CC(=O)Nc2ccc3c(c2)CCC3)cc1S(=O)(=O)N1CCOCC1` the figure was > 40 µM (inactive).
With `CSc1ccc(S(=O)(=O)NCc2ccc(Cl)cc2Cl)cc1`, the EC50 is > 40 µM (inactive).
On the same count and under the same terms, under `CC1(C)CC(=O)c2sc(NS(C)(=O)=O)nc2C1` stands > 40 µM (inactive); under `COc1ccc(CNC(=O)c2c(O)c3cccc4c3n(c2=O)CCC4)cc1`, > 40 µM (inactive).
Regarding `O=C1CC(c2ccccc2)CC(O)=C1C=NCCN1CCNCC1` (configuration not stated), the EC50 was > 40 µM (inactive).
The same measure, in the same setting: under `C=CCN(CC=C)c1nc2ccccc2nc1C(C#N)C(=O)OC(C)C` (configuration not stated) stands > 40 µM (inactive); under `CC(C)Cn1c(=O)c(C(=O)Nc2cnccn2)c(O)c2ccccc21`, > 40 µM (inactive).
`COC(=O)CCS(=O)(=O)c1nc(-c2ccccc2)cc(C(F)(F)F)n1`: the EC50 was > 40 µM (inactive).
Same read-out and setting: under `O=c1cc(O)c2c(=O)n(-c3ccccc3)c3c(c2o1)CCCCCC3` stands > 40 µM (inactive); under `CN1CCN(C(=S)Nc2cc([N+](=O)[O-])ccc2Cl)CC1`, > 40 µM (inactive); under `CC(=O)[C@H]1[C@H](c2cccc(Cl)c2)C(C#N)(C#N)[C@@H]2c3ccccc3C=CN21`, > 40 µM (inactive).
The same measure, in the same setting: with `O=C1ON=C(c2ccccc2)/C1=C/c1ccc(-c2ccccc2[N+](=O)[O-])o1` the figure was > 40 µM (inactive).
The same measure, in the same setting: with `Oc1ccc2ccccc2c1/C=N/c1nccs1` the figure was > 40 µM (inactive); with `O=S1(=O)C=C(Sc2nnc(-c3ccccc3)o2)c2ccccc21`, > 40 µM (inactive); with `COc1ccc(/C=N/NC(=O)c2csc(-n3nc(C)cc3C(F)(F)F)n2)cc1`, > 40 µM (inactive).
As for `Cc1ccccc1Oc1cc(-n2ncc(Cl)c(Cl)c2=O)ncn1`, the EC50 was > 40 µM (inactive).
Still for that read-out and setting: under `O=C(CCl)c1ccc(Cc2ncc(C(F)(F)F)cc2Cl)s1` stands > 40 µM (inactive).
On the same count and under the same terms, under `CCOC(=O)c1c(NC(=O)C2C3C=CC(C3)C2C(=O)O)sc2c1CCC(CC)C2` (configuration not stated) stands > 40 µM (inactive).
In the case of `CCCCn1c(/N=C/c2ccccc2NS(=O)(=O)c2ccc(C)cc2)nc2ccccc21`, the EC50 is > 40 µM (inactive).
The same measure, in the same setting: under `Cc1c(NC(=O)C(=O)/C=C(\O)c2ccc(Cl)cc2)c(=O)n(-c2ccccc2)n1C` stands > 40 µM (inactive).
Same read-out and setting: with `Cc1ccnc(N=Cc2c(O)ccc3oc4c(c23)CCCC4)c1` the figure was > 40 µM (inactive).
Same read-out and setting: under `CC(C)c1ccc(C2=C(O)c3ccccc3C(=O)C2=O)cc1` stands > 40 µM (inactive); under `COc1ccc(C(C)NC(=O)c2ccccc2)cc1` (configuration not stated), > 40 µM (inactive).
For `O=C1CC(c2ccccc2)CC(O)=C1C=NCCN1CCN(C(=O)Nc2ccccc2)CC1` (configuration not stated), the EC50 is > 40 µM (inactive).
With `O=C1C=CC2C(c3ccc4c(c3)OCO4)CC1N2Cc1ccccc1` (configuration not stated), the EC50 is > 40 µM (inactive).
Regarding `CC(C)(C)C1CCc2[nH]nc(C(=O)O)c2C1` (configuration not stated), the EC50 was > 40 µM (inactive).
On the same count and under the same terms, with `COc1ccccc1C(=O)Oc1cc(N)n(S(=O)(=O)c2ccc(C)cc2)n1` the figure was > 40 µM (inactive); with `O=C(NNC1=Nc2cccc3cccc1c23)c1ccccc1Br`, > 40 µM (inactive); with `CCOc1ccc(/C=C/C(=O)c2c(O)c3ccccc3oc2=O)cc1`, > 40 µM (inactive).
Regarding `CC1(C)Cc2ccccc2-c2nnc(SCC(=O)Nc3ccc4c(c3)OCO4)n21`, the EC50 is > 40 µM (inactive).
The same measure, in the same setting: under `Cc1ccccc1NC(=O)c1ccccc1` stands > 40 µM (inactive); under `CCOC(=O)CS(=O)(=O)c1nc(-c2ccc(F)cc2)cc(C(F)(F)F)n1`, > 40 µM (inactive).
On to `Cc1ccc(-c2ccc(/C=C3\C(=O)ON=C3c3ccccc3)o2)c([N+](=O)[O-])c1`, for which the EC50 was > 40 µM (inactive).
Turning to `C=C1C(=O)C=C2CN(C(=O)c3ccccc3)[C@@](Cc3ccc(F)cc3)(C(=O)OC)[C@@H]12`, the EC50 is > 40 µM (inactive).
Still for that read-out and setting: with `c1cncc(-c2nn[nH]n2)c1` the figure was > 40 µM (inactive).
The same measure, in the same setting: under `CCOc1cc(Br)c(Br)c(C=Nc2ccc(NC(C)=O)cc2)c1O` stands > 40 µM (inactive); under `O=C(Oc1ccc([N+](=O)[O-])cc1)c1ccc2ccccc2n1`, > 40 µM (inactive).
On the same count and under the same terms, with `COc1ccc(/C(O)=C/C(=O)C(=O)Nc2c(C)n(C)n(-c3ccccc3)c2=O)cc1` the figure was > 40 µM (inactive); with `COC(=O)c1sc(S(=O)(=O)Nc2ccc(Br)cc2)c(C(=O)OC)c1C`, > 40 µM (inactive); with `Cc1ccc(N/C(C(Cl)=C(Cl)Cl)=C(/Cl)[N+](=O)[O-])c(C)c1`, > 40 µM (inactive).
With `CC(=O)N1CCN(CCN=CC2=C(O)CC(c3cccs3)CC2=O)CC1` (configuration not stated), the EC50 was > 40 µM (inactive).
Same read-out and setting: under `O=C(N/N=C/c1ccccc1)c1c(O)c2ccccc2[nH]c1=O` stands > 40 µM (inactive).
On the same count and under the same terms, under `Cc1ccc(CNc2nc3ccccc3s2)s1` stands > 40 µM (inactive); under `O=Cc1ccccc1OS(=O)(=O)c1ccccc1`, > 40 µM (inactive); under `CC(C)C(OC(=O)CN1C(=O)COc2ccccc21)C(=O)NC1CCCC1` (configuration not stated), > 40 µM (inactive).
On the same count and under the same terms, with `O=C(Nc1scc(-c2cccs2)c1C(=O)O)c1cccs1` the figure was > 40 µM (inactive).
With `O=C1c2ccccc2C(Nc2ccc3c(c2)OCCO3)N1c1ccccn1` (configuration not stated), the EC50 was > 40 µM (inactive).
In the case of `Cc1ccc2[nH]c(=O)c(CN(CCO)Cc3nnnn3CCc3ccccc3)cc2c1`, the EC50 was > 40 µM (inactive).
On the same count and under the same terms, with `CC(C)(C)OC(=O)[C@H]1[C@H](c2ccc([N+](=O)[O-])cc2)C2(C(=O)c3ccccc3C2=O)C2c3ccccc3C=NN21` (some centres not stated) the figure was > 40 µM (inactive).
Still for that read-out and setting: with `CC1(C)CC(=O)C2=C(C1)OC1=C(C(=O)CC(C)(C)C1)C2c1ccc(O)cc1O` the figure was > 40 µM (inactive); with `CCOC(=O)CCS(=O)(=O)c1nc(-c2ccccc2)cc(C(F)(F)F)n1`, > 40 µM (inactive); with `O=C(Nc1scc(-c2ccc(F)cc2)c1C(=O)O)c1ccco1`, > 40 µM (inactive).
Still for that read-out and setting: under `COc1cc(/C=C/C(=O)C2C(=O)C=C(C)OC2=O)cc(OC)c1O` (configuration not stated) stands > 40 µM (inactive).
